Here are results for 2 compounds from patent publication US11033568B2, “Nicotinamide riboside compositions for topical use in treating skin conditions” (ChromaDex Inc., priority 2013, dated 2021).

Each structure is given as a SMILES string.

The test system of one data set is A431 cell line. Briefly: UV-C damage assay, cyclobutane pyrimidine dimer (CPD) ELISA. The settings on record: for cyclobutane pyrimidine dimer (CPD) level vs. control: 2 h pre-treatment, 10 J/m^2 UVC. In kind it is cell-based, human. As for the experimental part:
The A431 cell line was seeded in 6-wells plate at a seeding density of 4×10^5 cells/well in 2 ml of culture media containing 10% FBS. The cells were left untreated as a control or treated with different concentrations of NR chloride in the media (5 mM and 1 mM) for 2 h under a fully humidified atmosphere containing 5% CO2 at 37° C. After incubation, culture media was replaced by PBS and cells were exposed to 10 J/m^2 UVC irradiation. Plates were harvested along with respective controls immediately after UVC exposure (Negative Control was cells without UV-C exposure while Positive Control was untreated Cells with UV-C exposure). DNA from cells in each condition was extracted and quantified by NanoDrop. DNA samples were then added in the ELISA plate at 100 ng/well conc. and amount of cyclobutane pyrimidine dimer (CPD) was estimated in the DNA samples using CPD-DNA estimation kits (OxiSelect™, Cell Biolabs, Inc., San Diego, USA) as per manufacturer's protocol.

The next data set has as its system NIH 3T3 fibroblasts. Briefly: Scratch wound healing assay (CytoSelect Wound Healing Assay Kit). It counts as cell-based, mouse. The procedure: NIH 3T3 fibroblasts were obtained from […]) and cultured in Dulbecco's modified Eagle's medium (DMEM) supplemented with 10% fetal bovine serum (FBS), 4 mM L-glutamine, 1% penicillin/streptomycin under a fully humidified atmosphere containing 5% CO2 at 37° C. For experiments, cells were collected from subconfluent monolayers with trypsin/EDTA. Cell viability was higher as 95% using trypan blue dye exclusion staining. The study was carried out using cells from passages 4-7 in DMEM medium containing 1% FBS. Untreated cells (1% FBS) were used as negative controls. The effect of nicotinamide riboside chloride (NR chloride) on wound closure in NIH 3T3 fibroblasts was investigated. Cell viability was determined by cell titer blue (Promega), wound closure by CytoSelectTM Wound Healing Assay Kit (Cell Biolabs, Inc., San Diego, USA). All conditions were performed in three independent, controlled experiments. […] Microscopic imaging of wound closure was analyzed using “Image J” software. […] Apart from microscopic observations, data was analyzed for the determination of total surface area of the defined wound area using “Image J” software. Surface area of the migrated cells into the wound area was calculated by subtracting surface area after 24 hour from total surface area of the wound at “0” hour. […]

Data set [1] deals with A431 human epidermoid cells. Briefly: Oxidative damage protection assay (1 mM H2O2, alamar blue cell viability). In kind it is cell-based. The settings on record: for percent cytoprotection: 1 mM H2O2, vs positive (H2O2) control. As for the experimental part:
A431 human epidermoid cells (ATCC #CRL1555) were grown in DMEM media supplemented with 10% FBS and 1% PenStrep in T75 flasks based on culture recommendations. The media was replaced every two-three days till >80% confluency was attained. The cells were trypsinized with 0.25% trypsin EDTA solution for 2-3 minutes until the cells were dislodged. The cells were sub-cultured in a ratio of 1:3 for further growth and scale-up for the assay. The cells were trypsinized and counted to a density of 5,000 or 15,000 cells and seeded in […], media/well in 96-well clear bottom black plates. The outer wells at the periphery of the plates were left unseeded and were instead filled with media to reduce the edge effect during incubation. The plates were incubated overnight in a humidified incubator at 37° C./5% CO2 to confirm that the cells were attached. The Nicotinamide Riboside chloride (NR chloride) was added at indicated final assay concentrations in the media either under pre-treatment for 24 h (without hydrogen peroxide) or along with 1 mM hydrogen peroxide for an incubation of 20 h in a humidified incubator at 37° C./5% CO2 either with media replenishment at 8 h or under growth synchronized conditions using 1% FBS. Each concentration was tested in 6 replicates. Appropriate controls: cells without compound and hydrogen peroxide (no cytotoxicity; negative control), cells without compound but in the presence of 1 mM hydrogen peroxide (positive control), wells with alamar blue alone (blank) were kept in each assay. Cell viability was graphed and data was represented as percent cytotoxicity for 1 mM H2O2 under a given assay condition with respect to negative (untreated control) cells or percent cytoprotection in the presence of the test compound calculated with respect to positive (1 mM H2O2) control.
A general note: Resazurin is reduced to fluorescent resorufin, in cell work by metabolically active cells.

The conditions of data set [2]: cited from earlier work.

For `NC(=O)c1ccc[n+]([C@@H]2O[C@H](CO)[C@@H](O)[C@H]2O)c1` [NR chloride, Nicotinamide Riboside chloride], the “cyclobutane pyrimidine dimer (CPD) level vs. control” value with A431 cell line (+1 mM, 1.2 μg/ml DNA control) is given as −32%; in the data set with A431 cell line (+1 mM, 2.1 μg/ml DNA control), −41%; in the data set with A431 cell line (+5 mM, 1.2 μg/ml DNA control), −34%; in the data set on A431 cell line (+5 mM, 2.1 μg/ml DNA control), −50%. The “reduction of levels of CPDs” value with A431 cell line (expected) was “at least 10%”. Moreover, the gap closure is 13% in the data set with NIH 3T3 fibroblasts (0.2 mM + 1% FBS) and 46% in the data set with NIH 3T3 fibroblasts (1 mM + 1% FBS, 24 hour incubation). For the same compound, the percent cytoprotection in data set [1] (0.04 mM, normal growth (10% FBS)) is given as −1%; in data set [1] (0.2 mM, growth synchronized (1% FBS)), 2%; in data set [1] (0.2 mM, normal growth (10% FBS)), 8%; in data set [1] (1 mM, growth synchronized (1% FBS)), 15%; in data set [1] (1 mM, normal growth (10% FBS)), 23%; in data set [1] (5 mM, growth synchronized (1% FBS)), 38%. Also, the “reduction of oxidative damage-mediated cell death” value in data set [1] (expected) is reported as “at least 10%”; in data set [1] (summary over conditions, even in growth arrested condition) it was 10-40%.

As for `COc1cc(/C=C/c2ccc(O)cc2)cc(OC)c1` [pterostilbene, 3,5-dimethoxy-4′-hydroxy-trans-stilbene], the “half life t1/2” value in data set [2] (in blood) is recorded as “about 105 minutes”. In data set [2] (in vivo, po), the oral bioavailability entry is reported as “orally bioavailable”.
